This note sets out measurements from patent publication US20070014736A1, “Methods of delivering corticotroph-derived glycoprotein hormone” (priority 2005, published 2007).

For assay [1], the system named is lipolysis in mice. The assay is described as follows: Stimulation of lipolysis in vivo, serum glycerol and FFA. Particulars: fasted mice, IP; CGH 300 μg/kg, CL 1 mg/kg. How it is done: CGH, the β3-adrenoreceptor agonist CL 316,243 (CL), and saline vehicle were examined for stimulation of lipolysis in mice following an overnight fast. […] Lipolysis was assessed as the percent change in serum glycerol or FFA over the 2 hour period. The serum glycerol and FFA for the vehicle groups decreased by 7%±9% and 24%±15%, respectively. The serum glycerol for the CGH group increased by 57%±20%; p=0.0254, and the FFA levels increased 25%±5%; p=0.0188.
C57 BL/6 male mice, age 19 weeks, were grouped to normalize weight (n=4 for each treatment; average group weight=37.8 g±0.4 g). Mice were housed individually for 18 hours prior to treatment, at which time food was withdrawn, with free access to water given. At approximately 8 a.m., the subjects were anesthetized with halothane and blood samples taken by retro-orbital eye bleed. The blood was allowed to clot, and the serum was separated by centrifugation and frozen for later analysis. Test substances were administered by IP injection in a volume of 0.1 ml, and the animals replaced in their cages for 2 hours with free access to water. At 2 hours, the mice were sacrificed and blood drawn by cardiac puncture.
For measuring free fatty acids in serum, the method previously described for measuring free fatty acids in conditioned media was followed, with the following modifications. Wako reagents A and B were reconstituted to 2× the recommended concentration. 75 μl of Wako reagent A were added to 5 μl of oleic acid standard plus 5 μl of water. 75 μl of Wako reagent A were added to 5 μl of serum plus 5 μl of methanol (to mirror the oleic acid standard conditions). The 96-well plates were incubated at 37° C. for 10 minutes. 150 μl of Wako reagent B were added to each well. The 96-well plates were incubated at 37° C. for 10 minutes. The 96-well plates were allowed to sit at room temperature for 5 minutes. The 96-well plates were centrifuged in a Beckman Coulter Allegra 6R centrifuge at 3250×g for 5 minutes to remove air bubbles. The absorbance at 530 nm was measured on the Wallac Victor2 Multilabel counter.
For measuring glycerol in serum, the method previously described for measuring glycerol in conditioned media was followed, with the modifications described below.
Sigma reagent A was reconstituted to 0.5× the recommended concentration. 200 μl of Sigma reagent A were added to 10 μl of glycerol standard. 200 μl of Sigma reagent A were added to 5 μl of serum plus 5 μI of water. The 96-well plates were incubated for 15 minutes at room temperature. The 96-well plates were centrifuged in a Beckman Coulter Allegra 6R centrifuge at 3250×g for 5 minutes to remove air bubbles. The absorbance at 530 nm was measured on the Wallac Victor2 Multilabel counter.

Assay [2] concerns obese male ob/ob mice. The assay is described as follows: Chronic 28-day treatment of ob/ob mice. It counts as in vivo. How it is done:
Summary: CGH was administered daily for 28 days to obese male ob/ob mice. Mice were also treated with vehicle saline and thyroxine. Data was obtained for food intake, blood glucose, serum insulin, serum lipids, and serum thyroid hormone levels. At sacrifice, animals were examined for changes in liver pathology, and gross histology. […] Evaluation of liver histology sections was performed to examine the effect of CGH-mediated lipolysis on liver steatosis.
11-week old male ob/ob mice were individually caged and given a standard lab chow (4% fat) with free access to food and water. Animals were assigned to a treatment group (n=7−8, average weight 54.3±0.3 g/group), kept on a 12 hour dark cycle (6 PM to 6 AM), and injected each day between 7 and 9 AM. Chow consumed by each animal was weighed twice weekly. All animals received treatments IP in an injection volume of 0.1 ml. CGH was administered at 250 μg/kg, dissolved in sterile saline. Thyroxine (T4) was administered at 1.5 μg/mouse for 4 days, reduced to 1 μg/mouse for 10 days, and returned to 1.5 μg/mouse for the next 14 days. The vehicle controls received sterile saline. TSH was obtained from Genzyme Pharmaceuticals (Thyrogen®, Catalog number 36778; Genzyme Corporation, Cambridge, Mass.), and T4 obtained from Calbiochem, Inc. (EMD Biosciences, catalog number 61205, San Diego, Calif.) All blood draws were performed by retro-orbital puncture under isoflurane anesthesia.
After 25 days of treatment as described above, blood was sampled from all treated animals, serum separated, and analyzed for total T4 by a commercially available kit (Biocheck, Burlingame, Calif.). After 25 days of treatment, the vehicle T4 levels were 5.14±0.08 μg/dl. The CGH-treated group had T4 levels of 7.25±1.2 μg/dl, and the thyroxine-treated group had T4 levels of 9.04±0.47 μg/dl.
Subject animals were fasted for 4 hours at the beginning of the light cycle, and serum was obtained at treatment day 25 under isoflurane anesthesia. Serum Glucose levels were determined with the Cholestech LDX blood analyzer (Cholestech Corporation, Hayward Calif.), and serum insulin levels by ELISA. Serum glucose levels for vehicle and thyroxine treated groups were 306±22 and 295±23 mg/dl, respectively. […] Serum insulin levels for the vehicle and thyroxine treated groups were 33.5±1.8 and 25.9±1.7 ng/ml, respectively.
Subject animals were fasted for 4 hours at the beginning of the light cycle, and serum was obtained at treatment day 25 under isoflurane anesthesia. Triglyceride and total cholesterol levels were determined with the Cholestech LDX blood analyzer. Serum triglyceride levels for the vehicle controls were 143.7±23 mg/dl. […] Total cholesterol levels in the vehicle-treated and thyroxine-treated groups were 198±13 and 194±15 mg/dl, respectively.
Liver sections were dissected from all treatment groups described above and mounted in paraffin following fixation with NBS-formalin. Sections were mounted and stained with hematotoxylin and eosin (H&E) for visualization of hepatic structural changes. The extent of liver steatosis was evaluated on a four-point scale, from 0 to 3, with zero displaying no signs of liver steatosis, and a […], represented pronounced macrovesicular and microvesicular steatosis. […] Average scores given to the groups were vehicle (4), thyroxine (3), and CGH (1.5). […] The CGH treated sections appear to have regained hallmarks of normal hepatocyte architecture in only 28 days of treatment, with areas containing hepatocytes without lipid-laden inclusions in the cytoplasm of the cell.

In assay [3] the test system is LPS-induced mild endotoxemia mouse model. Description: LPS-induced mild endotoxemia mouse model, serum cytokines. It counts as in vivo, mice. The settings on record: 2 mg/kg monomer, data not shown. How it is done:
An in vivo experiment was designed to examine the effect of CGH in a mouse model of LPS-induced mild endotoxemia. This model mimics acute endotoxemia/sepsis by challenging mice with a low, non-lethal dose of bacterial endotoxin (lipopolysaccharide, LPS). Serum is collected at various timepoints (1-8 hours) after intraperitoneal LPS injection and analyzed for altered expression of a wide variety of pro- and anti-inflammatory cytokines and acute phase proteins that mediate the inflammatory response. The model provides a means to assess the potential anti-inflammatory effects of therapeutic candidates during a robust inflammatory response. To initially assess the model, we measured proinflammatory cytokines in a pilot experiment to collect reference data for the model.
C57B1/6 mice (Charles River Laboratories; 5 mice/group) were treated i.p. with PBS, 0.2 mg/kg CGH in PBS, or 2 mg/kg CGH in PBS 1 hour prior to LPS challenge. The mice were then challenged with 25 ug of LPS i.p. and bled at 1 hour and 4 hours after LPS injection. Serum was analyzed for TNF[…] (1 hour) and IL-6 (4 hours) levels by ELISA.
To determine if CGH would potentiate the effect of a sub-maximal dose of glucocorticoid, groups of 10 C57B1/6 mice each were treated i.p. with PBS, 0.15 or 1.5 mg/kg Dex, 2 mg/kg CGH, or a combination of CGH and low or high doses of Dex, 1 hour prior to injection of 25 ug LPS i.p. As shown in TABLE 3 (Expt #2), either 2 mg/kg CGH or 1.5 mg/kg Dex treatment alone (1 hour prior to LPS) caused a significant drop in serum TNFα levels at 1 hour, as observed in previous experiments. The effects of CGH administered in conjunction with Dex on inhibition of TNFα production were greater than either dose of Dex alone.

Assay [4] concerns TSHR. The assay is described as follows: Binding of 125I-CGH and 125I-TSH to BHK cells expressing the TSHR. More on the design: species or system murine or human. The settings on record: increasing amounts of unlabeled protein. How it is done:
BHK cells expressing murine or human TSHRs were cultured in Dulbecco's Modified Eagle's Medium [DMEM (high glucose)] containing 5% fetal bovine serum, 1% Glutamax, 1% sodium pyruvate, 250 nM methotrexate, and Geneticin ( 1/100). […] Plates of cells were placed on ice and washed twice with 1.0-2.0 ml of ice-cold PBS. […] Specific binding was determined in the presence (nonspecific binding) and absence (total binding) of unlabeled rhCGH (25.0 μg/ml) or TSH (10 μg/ml). Binding reactions were terminated by removing the binding medium and the cell monolayers were washed three times with 1.0-2.0 ml of ice-cold PBS containing 1.0 mg/ml BSA and twice with 1.0-2.0 ml of ice cold albumin-free PBS. Cells were solubilized in 1.0 ml of 1.0N NaOH for 10 min at room temperature and cell-associated radioactivity was determined in a gamma counter. The measured radioactivity was normalized to cell number that was determined on plates of cells cultured in parallel. Binding data were analyzed by non-linear regression using Prizm 3.0 (GraphPad Software, San Diego, Calif.).

For `C[C@H](Cc1ccc2c(c1)OC(C(=O)[O-])(C(=O)[O-])O2)NC[C@H](O)c1cccc(Cl)c1.[Na+].[Na+]` [CL, CL 316,243, reference compound], in assay [1], the “percent change (increase) in serum FFA over 2 hours” value was 82%±16% and the “percent change (increase) in serum glycerol over 2 hours” value was 168%±23%.
Consider `N[C@@H](Cc1cc(I)c(Oc2cc(I)c(O)c(I)c2)c(I)c1)C(=O)O` [thyroxine, reference compound], for which the “liver steatosis average score” value in assay [2] (H&E liver sections, 28 days, n=4) is reported as 3. In addition, the “serum total T4 levels” value in assay [2] (after 25 days of treatment) was found to be 9.04 ± 0.47 µg/dL. Also, in assay [2] (day 25, fasted 4 hours), the Serum glucose levels is 295 ± 23 mg/dL, the Serum insulin levels came to 25.9 ± 1.7 ng/mL, the Serum triglyceride levels was found to be 198 ± 43 mg/dL and the Total cholesterol levels came to 194 ± 15 mg/dL. For the same molecule, the Food intake in assay [2] (ob/ob mice, CGH 250 μg/kg IP daily, T4 1-1.5 μg/mouse) is given as 6.1±0.17 grams/day of chow.

B1: zsig51: alpha subunit of CGH, glycoprotein hormone alpha2, previously called Zsig51 (protein)
chain: QEAVIPGCHLHPFNVTVRSDRQGTCQGSHVAQACVGHCESSAFPSRYSVLVASGYRHNITSVSQCCTISGLKKVKVQLQCVGSRREELEIFTARACQCDMCRLSRY
In the case of B1, the “effect on serum TNFα or IL-6 levels” value in assay [3] is given as “neither of these monomers had any effect”. Besides, the “reduction of the amount of 125I-CGH bound by unlabeled competitor” value in assay [4] is “neither unlabeled rhTSH (FIG. 1C) nor unlabeled rhGPHA2 nor rhGPHB5 (data not shown) reduced the amount of ^125I-CGH bound”.

B2: zlut1: beta subunit of CGH, glycoprotein hormone beta 5, previously called Zlut1 (protein)
chain: ASSGNLRTFVGCAVREFTFLAKKPGCRGLRITTDACWGRCETWEKPILEPPYIEAHHRVCTYNETKQVTVKLPNCAPGVDPFYTYPVAIRCDCGACSTATTECETI
Take B2: the “effect on serum TNFα or IL-6 levels” value in assay [3] was “neither of these monomers had any effect”. Moreover, in assay [4], the “reduction of the amount of 125I-CGH bound by unlabeled competitor” value is “neither unlabeled rhTSH (FIG. 1C) nor unlabeled rhGPHA2 nor rhGPHB5 (data not shown) reduced the amount of ^125I-CGH bound”.
